Reference: patent US10088479B2, “Biomarker and uses thereof” (ISIS INNOVATION LIMITED, priority 2014, dated 2018)
Where no end group is shown, it is not given here. [ ]: non-standard residue; d: D form. Cit = NC(=O)NCCC[C@H](N)C(=O)O

Legend:
[1] = system: RA sera; assay: IgG response to cyclic citrullinated FBG peptides in RA and control sera; type: binding, human; details: RA sera (n=20) vs control sera (n=20)
Description: (A) Peptides with sequences corresponding to the amino acid sequence of FBG were designed, with the addition of cysteine residues at the amino and carboxy termini and the exchange of arginine for citrulline residues at positions identified by LC-MS/MS. (B) IgG response to citrullinated FBG peptides and arginine containing control peptides in patients with rheumatoid arthritis (RA; n=20) and healthy controls (n=20). The 95th percentile of the control sera was used to determine positivity (dashed line). Mann-Whitney U test was used to calculate p values for differences between groups (n.s.=no significant difference, *=p<0.05 and **=p<0.01, ***=p<0.001, […]).
With reference to FIG. 31, the antibody response in 20 RA and 20 control sera to 6 cyclic FBG peptides, encompassing citrulline residues was evaluated.

[2] = system: RA synovial membrane cultures; assay: Blockade of spontaneous cytokine synthesis in RA synovial membrane cultures by FBG peptides; type: cell-based, human; details: 24 h; for inhibition of cytokine synthesis at the highest concentrations: RA membrane cultures, peptide 25, 100 or 250 μM, highest concentration; for TNF and IL8 synthesis (spontaneous): RA synovial membrane cultures, 100 μM peptide
Protocol: RA membrane cells (representing a mixed population of all synovial cell types) were isolated from synovial membranes obtained from patients undergoing joint replacement surgery (Brennan (1989)). Synovial membrane tissue was digested in RPMI 1640 (GIBCO) containing 5% fetal calf serum (FCS) (GIBCO), 5 mg/ml collagenase type IV (Sigma) and 0 15 mg/ml DNAse type I (Sigma) and incubated at 37° C. for 2 h.
Immediately after isolation, RA membrane cells were cultured at 1×10^5 cells/well in RPMI 1640 containing 10% (v/v) FBS and 100 U/ml penicillin/streptomycin in 96-well tissue culture plates. Cells were incubated for 24 h at 37° C. with no addition, buffer control (PBS, 1% BSA, 0.01% NaN3), or with 25 μm, 100 μM or 250 μM of each FBG spanning peptide.
(§1) Supernatants were examined for the presence of the cytokines TNF-α, IL-6, and IL-8 by enzyme-linked immunosorbent assay (ELISA) according to the manufacturer's instructions (R&D systems). Absorbance was read on a spectrophotometric ELISA plate reader (Labsystems Multiscan Biochromic, Vantaa, Finland) and analyzed using the Ascent software program (Thermo Labsystems, Altrincham, UK).

[3] = system: primary human macrophages; assay: Cytokine synthesis in primary human macrophages stimulated with FBG peptides; type: cell-based; details: 1 or 20 μM peptide, 24 h
Protocol: After incubation the tissue was pipetted through a nylon mesh into a sterile beaker. The cells were then washed three times in complete medium (RPMI 1640 supplemented with 10% FCS). RA synovial fibroblasts were isolated from the mixed population of RA membrane cells by selection in DMEM (Bio-Whittaker) supplemented with 10% FBS, […], 100 U/ml penicillin, and streptomycin. Human monocytes were isolated from peripheral blood (London Blood Bank) and macrophages were derived from monocytes after differentiation for 4 days with 100 ng/ml of M-CSF.
(§2) Macrophages were cultured at 1×10^5 cells/well in RPMI 1640 containing 5% (v/v) FBS and 100 U/ml penicillin/streptomycin in 96-well tissue culture plates for 24 h before stimulation. Cells were incubated for 24 h at 37° C. with no addition, 1.0 μM FBG, 1 ng/ml LPS or 1 or 20 μM FBG peptide. Where stated, cells were pre-incubated with 20 μM FBG peptides for 15 min.
as §1

[4] = system: human macrophages; assay: FBG or LPS induced cytokine synthesis in human macrophages after pre-incubation with FBG peptides; type: cell-based; details: pre-incubation with 20 μM peptide, 24 h; for FBG mediated cytokine synthesis: then 1 μM whole FBG
Protocol: as §2, §1

[5] = system: synovial fibroblasts from RA joints (RAF); assay: Cell adhesion to coated FBG, crystal violet; type: cell-based, human; details: coated wells, 45 minutes
Protocol: (§3) (A) The sequence identified to bind integrin αvβ3 is shown in white (Yokoyama et al., 2000). Within this sequence two Arginines (shown in black) were identified to be citrullinated. (B) Wells of a 96 well plate were coated with different concentrations of FBG, citrullinated FBG (cFBG), FBG incubated in buffer without Calcium (FBG —Ca^2+), or FBG incubated without PAD (FBG —PAD). As a positive control wells were coated with Fibronectin (FN) (1 ug/ml), and coating with BSA (10 mg/ml) served as negative control. Plates were incubated with human dermal fibroblasts (HDF) or synovial fibroblasts from RA patients (RAF) for 45 minutes and adhesion was measured by determining absorbance of attached cells after staining with crystal violet (0.1%). Data are shown as the mean of at least four independent experiments+s.e.m., *=p<0.05, **=p<0.01.

[6] = system: primary human macrophages; assay: TNF synthesis in primary human macrophages stimulated with native or citrullinated FBG; type: cell-based; details: 0.1-1.0 μM, 24 h
Protocol: Primary human macrophages were isolated as described above and cultured at 1×10^5 cells/well in RPMI 1640 containing 5% (v/v) FBS and 100 U/ml penicillin/streptomycin in 96-well tissue culture plates for 24 h before stimulation. Cells were incubated for 24 h at 37° C. with no addition (UN), different concentrations (uM) of native FBG (nFBG) or cit FBG (cFBG) or citrullination buffer alone (CIT) or cit buffer plus PAD enzyme (CIT+PAD).
Supernatants were examined for the presence of the cytokines TNF-α by enzyme-linked immunosorbent assay (ELISA) according to the manufacturer's instructions (R&D systems). Absorbance was read on a spectrophotometric ELISA plate reader (Labsystems Multiscan Biochromic, Vantaa, Finland) and analyzed using the Ascent software program (Thermo Labsystems, Altrincham, UK).

[7] = system: human dermal fibroblasts (HDF); assay: Cell adhesion to coated FBG, crystal violet; type: cell-based; details: coated wells, 45 minutes
Protocol: as §3

CEMKL-Cit-PSNF-Cit-NLEGRRKRC (CEMKL[Cit]PSNF[Cit]NLEGRRKRC; also: cyclic, closure not given here) [CIT209/214]
antibody response [1]: strong antibody response

CEMKLRPSNFRNLEG-Cit-Cit-KRC (CEMKLRPSNFRNLEG[Cit][Cit]KRC; also: cyclic, closure not given here) [CIT219/220]
antibody response [1]: strong antibody response

CVFLRRKNG-Cit-ENFYQNWC (CVFLRRKNG[Cit]ENFYQNWC; also: cyclic, closure not given here) [CIT55]
antibody response [1]: strong antibody response

ELRVDLRDHGETAFAVYDKFSVGDAKTRYK [Peptide 5]
effect on TNF synthesis ([2]; RA membrane cells): no effect
maximal inhibition of IL8 synthesis ([2]; RA membrane cells, dose dependent): 81%
induction of cytokine synthesis [3]: induced cytokine synthesis in a dose dependent manner
FBG mediated cytokine synthesis [4]: specifically blocked

KTRYKLKVEGYSGTAGDSMAYHNGRSFST [Peptide 6]
induction of cytokine synthesis [3]: induced cytokine synthesis in a dose dependent manner

TIGLLYPFPKDCSQAMLNGDTTSGLYTIYL [Peptide 1]
induction of cytokine synthesis [3]: induced cytokine synthesis in a dose dependent manner

WIVFLRRKNGRENFYQNWKAYAAGFGDRRE [Peptide 3]
inhibition of cytokine synthesis at the highest concentrations [2]: 95%
TNF and IL8 synthesis (spontaneous) [2]: inhibited

WYRNCHRVNLMGRYGDNNHSQGVNWFHWKG [Peptide 8]
inhibition of cytokine synthesis at the highest concentrations [2]: 56%
TNF and IL8 synthesis (spontaneous) [2]: inhibited
LPS induced cytokine synthesis ([4]; then 1 ng/ml LPS): blocked
FBG mediated cytokine synthesis [4]: blocked

B1: citrullinated FBG: recombinant FBG domain citrullinated in vitro with PAD (protein)
chain: GLLYPFPKDCSQAMLNGDTTSGLYTIYLNGDKAEALEVFCDMTSDGGGWIVFLRRKNGRENFYQNWKAYAAGFGDRREEFWLGLDNLNKITAQGQYELRVDLRDHGETAFAVYDKFSVGDAKTRYKLKVEGYSGTAGDSMAYHNGRSFSTFDKDTDSAITNCALSYKGAFWYRNCHRVNLMGRYGDNNHSQGVNWFHWKGHEHSIQFAEMKLRPSNFRNLEGRRKRA
modifications: non-natural residues; left off: small tags and cut ends
notes: recombinant FBG domain citrullinated in vitro with PAD
adhesion of RAF [5]: reduces adhesion
cytokine (TNFα) synthesis compared with native FBG [6]: better at stimulating cytokine (e.g. TNFα) synthesis
adhesion of HDF [7]: reduces adhesion
